Data published in patent US20190045784A1 (priority 2016, published 2019).
Where two headings read alike, the source gives them in different places.

Columns and labels:
Assay type in all cases: cell-based
Conditions in all cases: 7 days after inoculation
Botrytis cinerea = assay: Activity against the grey mold Botrytis cinerea in the microtiter plate test (Botrci)
Phytophthora infestans = tested on: Phytophthora infestans
Septoria tritici = assay: Activity against leaf blotch on wheat caused by Septoria tritici (Septtr), microtiter test
Alternaria solani = assay: Activity against early blight caused by Alternaria solani (Alteso), microtiter test

`Cc1ccc(COc2ncc(F)c(N)n2)cc1` [No. I-5, 5-fluoro-2-(p-tolylmethoxy)pyrimidin-4-amine] was tested, and the Observed efficacy (Botrytis cinerea; 16 ppm) was 24% and the Observed efficacy (Phytophthora infestans; 16 ppm) was 14%.

For `Cn1cc(C(=O)Nc2ccccc2-c2cc(F)c(F)c(F)c2)c(C(F)F)n1` [Fluxapyroxad, fluxapyroxad], the Observed efficacy (Septoria tritici; 0.000063 ppm) was 1%, the Observed efficacy (Septoria tritici; 0.001 ppm) was 7% and the Observed efficacy (Septoria tritici; 0.004 ppm) was 9%. For the same compound, the Observed efficacy (Septoria tritici; 0.016 ppm) was 17%, the Observed efficacy (Alternaria solani; 0.00025 ppm) was 7% and the Observed efficacy (Alternaria solani; 0.004 ppm) was 31%. For the same compound, the Observed efficacy (Alternaria solani; 0.016 ppm) was 69%, the Observed efficacy (Botrytis cinerea; 0.016 ppm) was 0% and the Observed efficacy (Phytophthora infestans; 0.016 ppm) was 2%. For the same compound, the Observed efficacy (Phytophthora infestans; 0.063 ppm) was 18%.

`Cn1c(=O)c2sc3c(=O)n(C)c(=O)c3sc2c1=O` [No. I-2, 2,6-dimethyl-1H,5H-[1,4]dithiino[2,3-c:5,6-c′]dipyrrole-1,3,5,7(2H,6H)-tetraone] showed an Observed efficacy (Septoria tritici; 0.063 ppm) of 35%, an Observed efficacy (Alternaria solani; 0.25 ppm) of 14% and an Observed efficacy (Phytophthora infestans; 0.25 ppm) of 0%. For the same compound, the Observed efficacy (Phytophthora infestans; 1 ppm) was 28%.

With `Nc1nc(OCc2ccc(F)cc2)ncc1F` [No. I-4, 5-fluoro-2-(4-fluorophenylmethoxy)pyrimidin-4 amine] the Observed efficacy (Alternaria solani; 1 ppm) was 0%.
